US20230227437A1, “IMMUNOMODULATOR” (priority 2020, published 2023)

Assays:
human IL-17A (hIL-17A) = molecular target: T1, human IL-17A (hIL-17A) (Homo sapiens, UniProt Q16552); test: IL-17A enzyme-linked immunosorbent assay (competitive ELISA, receptor-ligand binding)
T1 construct: purchased Sino Biological Inc. 12047-H07B
T1 sequence (Q16552 24-155): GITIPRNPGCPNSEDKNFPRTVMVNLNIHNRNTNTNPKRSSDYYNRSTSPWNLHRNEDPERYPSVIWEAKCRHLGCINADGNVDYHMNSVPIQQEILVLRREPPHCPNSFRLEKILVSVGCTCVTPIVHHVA
Experimental: The inhibition of receptor-ligand binding by human IL-17A (hIL-17A) inhibitors was detected by competitive ELISA. A 96-well plate was inoculated 0.2 μg/ml IL-17 (Sino Biological Inc. Cat #12047-H07B) for incubation at 37° C. for 30 min, 100 μL for per well. The 96-well plate was washed four times with phosphate buffered saline (PBS) containing Tween-20 (PBST, 0.05% Tween-20), 200 μL for per well each time. 200 μL of 5% skim milk were added into the 96-well plate for incubation on a shaker at 25° C. for 30 min. The 96-well plate was washed four times with PBST (0.05% Tween-20), and added with 89 μL of PBST and 1 μL of a compound to be measured (100×), in which a concentration the compound to be measured (100×) was 0.003 μM-30 μM. The mixture was mixed evenly and incubated at 25° C. for 10 min. The mixture was added with 10 μL of 16 nM IL-17R, followed by incubation at 25° C. for 30 min. After washing the 96-well plate 4 times, 100 μL of anti-Fc tag horseradish peroxidase (HRP) coupled antibody were added for incubation on a shaker at 25° C. for 30 min. After washing the 96-well plate 4 times, 100 μL of 3,3′,5,5′-tetramethylbenzidine (TMB) substrate solution were added to the 96-well plate for incubation away from light at 25° C. After addition of 20% HCl, an absorbance was measure by a microplate reader at 450 nm.
The compounds prepared according to the above method were assayed for human IL-17A inhibitory activity.

hIL-17A = molecular target: T2, hIL-17A (Homo sapiens, UniProt Q16552); test: Inhibition of hIL-17A-induced chemokine GROα/CXCL1 production in HT-29 cell; format: cell-based
T2 construct: purchased R&D 317-ILB
T2 sequence (Q16552 20-155 limits assumed): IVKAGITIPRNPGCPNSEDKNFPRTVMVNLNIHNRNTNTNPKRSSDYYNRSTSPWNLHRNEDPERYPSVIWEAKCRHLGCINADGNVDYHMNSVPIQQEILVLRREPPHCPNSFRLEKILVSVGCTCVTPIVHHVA
Experimental: Human colorectal adenocarcinoma cell HT-29 was inoculated to a 96-well plate (5×10^4 for per well), and incubated at 37° C. on an incubator overnight. A mixture of 30 ng/mL hIL-17A protein (R&D, #317-ILB) with gradient concentrations of IL-17A small molecule inhibitors or with 0.3 μg/mL positive control IL-17A antibody (R&D, #AF-317-NA) was incubated for 1 h at 37° C., and added into the 96-well plate to incubated with HT-29 at 37° C. for 48 h. A level of GROα in a cell culture supernatant was then detected using an ELISA kit for GROα (Cisbio, #62HCXC1peg).
Inhibitory effect of the compound prepared in Examples on hIL-17A-induced chemokine GROα/CXCL1 production in HT-29 cell was tested according to the methods of Experimental Examples 1 and 2. […] “-” indicated not tested. According to the results, the compounds provided herein have good human IL-17A inhibitory activity and can be effectively used in the treatment of diseases associated with abnormal hIL-17A activity.

| SMILES | IC50 (human IL-17A (hIL-17A)) | IC50 (hIL-17A) |
| --- | --- | --- |
| Cc1n[nH]c(C)c1-c1ccc(NC(=O)[C@@H](NC(=O)c2nonc2C2CC2)C2c3ccc(F)cc3OCC23CC3)cn1 (some centres unmarked) [Compound 95] | 94 nM | 457 nM |
| Cc1n[nH]c(C)c1-c1ccc(NC(=O)[C@@H](NC(=O)c2nonc2C2CC2)C2c3c(F)cc(F)cc3OCC23CC3)cc1 (some centres unmarked) [Compound 67] | 577 nM | 557 nM |
| Cc1n[nH]c(C)c1-c1ccc(NC(=O)[C@@H](NC(=O)c2nonc2C2CC2)C2c3ccc(F)c(F)c3OCC23CC3)cc1 (some centres unmarked) [Compound 87] | 165 nM | 332 nM |
| Cc1n[nH]c(C)c1-c1ccc(NC(=O)[C@@H](NC(=O)c2conc2C2CC2)C2c3ccc(F)cc3OCC23CC3)cn1 (some centres unmarked) [Compound 99] | 96 nM | 213 nM |
| Cc1n[nH]c(C)c1-c1ncc(NC(=O)[C@@H](NC(=O)c2ccnn2C)C2c3ccc(F)cc3CC23CC3)cc1F (some centres unmarked) [Compound 30] | 65 nM | 229 nM |
| Cc1n[nH]c(C)c1-c1ccc(NC(=O)[C@@H](NC(=O)OC2CC2)C2c3cc(F)c(F)cc3OCC23CC3)cn1 (some centres unmarked) [Compound 105] | 81 nM | 943 nM |
| Cc1n[nH]c(C)c1-c1ccc(NC(=O)[C@@H](NC(=O)c2nonc2C(C)C)C2c3ccc(F)cc3OCC23CC3)cc1F (some centres unmarked) [Compound 40] | 186 nM | 115 nM |
| Cc1n[nH]c(C)c1-c1ncc(NC(=O)[C@@H](NC(=O)c2ccnn2C(C)C)C2c3ccc(F)c(F)c3OCC23CC3)cc1F (some centres unmarked) [Compound 51] | 155 nM | 313 nM |
| Cc1n[nH]c(C)c1-c1ccc(NC(=O)[C@@H](NC(=O)c2ccnn2C(C)C)C2c3ccc(F)c(F)c3OCC23CC3)cn1 (some centres unmarked) [Compound 50] | 81 nM | 569 nM |
| Cc1n[nH]c(C)c1-c1ncc(NC(=O)[C@@H](NC(=O)c2nonc2C(C)C)C2c3cc(F)cc(F)c3OCC23CC3)cc1F (some centres unmarked) [Compound 68] | 503 nM | 1940 nM |
| Cc1n[nH]c(C)c1-c1ccc(NC(=O)[C@@H](NC(=O)c2nonc2C(C)C)C2c3ccc(F)c(F)c3OCC23CC3)cc1 (some centres unmarked) [Compound 65] | 222 nM | 212 nM |
| Cc1n[nH]c(C)c1-c1ncc(NC(=O)[C@@H](NC(=O)c2nonc2C2CC2)C2c3cc(F)c(F)cc3OCC23CC3)cc1F (some centres unmarked) [Compound 92] | 187 nM | 9650 nM |
| CCc1nonc1C(=O)N[C@H](C(=O)Nc1ccc(-c2c(C)n[nH]c2C)c(F)c1)C1c2ccc(F)cc2OCC12CC2 (some centres unmarked) [Compound 38] | 276 nM | 506 nM |
| COCc1[nH]nc(C)c1-c1ccc(NC(=O)[C@@H](NC(=O)c2nonc2C)C2c3ccc(F)c(F)c3OCC23CC3)cc1 (some centres unmarked) [Compound 85] | 133 nM | 1220 nM |
| Cc1n[nH]c(C)c1-c1ccc(NC(=O)[C@@H](NC(=O)c2ccnn2C(C)C)C2c3cc(F)ccc3OCC23CC3)cn1 (some centres unmarked) [Compound 20] | 61 nM | 878 nM |
| Cc1n[nH]c(C)c1-c1ccc(NC(=O)[C@@H](NC(=O)C2(F)CC2)C2c3cc(F)c(F)cc3OCC23CC3)cc1 (some centres unmarked) [Compound 55] | 65 nM | 228 nM |
| Cc1nonc1C(=O)N[C@H](C(=O)Nc1cnc(-c2c(C)n[nH]c2C)c(F)c1)C1c2ccc(F)cc2CC12CC2 (some centres unmarked) [Compound 29] | 152 nM | 378 nM |
| Cc1n[nH]c(C)c1-c1ccc(NC(=O)[C@@H](NC(=O)c2ccnn2C(C)C)C2c3c(F)ccc(F)c3OCC23CC3)cc1 (some centres unmarked) [Compound 76] | 270 nM | 1050 nM |
| Cc1n[nH]c(C)c1-c1ccc(NC(=O)[C@@H](NC(=O)c2nonc2C2CC2)C2c3cc(F)cc(F)c3OCC23CC3)cc1 (some centres unmarked) [Compound 80] | 406 nM | 762 nM |

| SMILES | IC50 (human IL-17A (hIL-17A)) | IC50 (hIL-17A) |
| --- | --- | --- |
| Cc1n[nH]c(C)c1-c1ccc(NC(=O)[C@@H](NC(=O)c2ccnn2C(C)C)C2c3c(F)cc(F)cc3OCC23CC3)cn1 (some centres unmarked) [Compound 59] | 222 nM | 1480 nM |
| Cc1n[nH]c(C)c1-c1ccc(NC(=O)[C@@H](NC(=O)c2ccnn2C)C2c3ccccc3OCC23CC3)cc1 (some centres unmarked) [Compound 3] | 40 nM | 213 nM |
| Cc1n[nH]c(C)c1-c1ccc(NC(=O)[C@@H](NC(=O)c2nocc2C(C)C)C2c3ccc(F)cc3OCC23CC3)cn1 (some centres unmarked) [Compound 33] | 219 nM | 92 nM |
| Cc1n[nH]c(C)c1-c1ccc(NC(=O)[C@@H](NC(=O)c2ccnn2C)C2c3ccc(F)cc3CC23CC3)cn1 (some centres unmarked) [Compound 31] | 72 nM | 872 nM |
| Cc1n[nH]c(C)c1-c1ncc(NC(=O)[C@@H](NC(=O)c2conc2C2CC2)C2c3cc(F)c(F)cc3OCC23CC3)cc1F (some centres unmarked) [Compound 96] | 125 nM | 134 nM |
| Cc1n[nH]c(C)c1-c1ncc(NC(=O)[C@@H](NC(=O)c2ccnn2C(C)C)C2c3c(F)cc(F)cc3OCC23CC3)cc1F (some centres unmarked) [Compound 60] | 193 nM | 279 nM |
| CCc1nocc1C(=O)N[C@H](C(=O)Nc1ccc(-c2c(C)n[nH]c2C)nc1)C1c2ccc(F)cc2OCC12CC2 (some centres unmarked) [Compound 34] | 120 nM | 63 nM |
| Cc1nonc1C(=O)N[C@H](C(=O)Nc1ccc(-c2c(C)n[nH]c2C)nc1)C1c2ccc(F)cc2OCC12CC2 (some centres unmarked) [Compound 27] | 119 nM | 672 nM |
| Cc1n[nH]c(C)c1-c1ccc(NC(=O)[C@@H](NC(=O)c2ccnn2C(C)C)C2c3ccc(F)c(F)c3OCC23CC3)cc1 (some centres unmarked) [Compound 56] | 139 nM | 355 nM |
| Cc1n[nH]c(C)c1-c1ncc(NC(=O)[C@@H](NC(=O)c2ccnn2C(C)C)C2c3ccc(F)cc3OCC23CC3)cc1F (some centres unmarked) [Compound 90] | 144 nM | 188 nM |
| Cc1n[nH]c(C)c1-c1ccc(NC(=O)[C@@H](NC(=O)c2ccnn2C)C2c3ccccc3CC23CC3)cc1 (some centres unmarked) [Compound 1] | 18 nM | 404 nM |
| Cc1n[nH]c(C)c1-c1ncc(NC(=O)[C@@H](NC(=O)c2nonc2C(C)C)C2c3ccc(F)c(F)c3OCC23CC3)cc1F (some centres unmarked) [Compound 64] | 154 nM | 335 nM |
| CCc1nonc1C(=O)N[C@H](C(=O)Nc1ccc(-c2c(C)n[nH]c2C)cc1)C1c2cc(F)cc(F)c2OCC12CC2 (some centres unmarked) [Compound 77] | 320 nM | 1010 nM |
| COC(=O)N[C@H](C(=O)Nc1ccc(-c2c(C)n[nH]c2C)cc1)C1c2cc(F)c(F)cc2OCC12CC2 (some centres unmarked) [Compound 107] | 51 nM | 383 nM |
| Cc1n[nH]c(C)c1-c1ccc(NC(=O)[C@@H](NC(=O)c2nonc2C(C)C)C2c3cc(F)c(F)cc3OCC23CC3)cn1 (some centres unmarked) [Compound 44] | 122 nM | 336 nM |
| Cc1n[nH]c(C)c1-c1ccc(NC(=O)[C@@H](NC(=O)c2ccnn2C(C)C)C2c3cc(F)cc(F)c3OCC23CC3)cc1 (some centres unmarked) [Compound 70] | 201 nM | 112 nM |
| Cc1n[nH]c(C)c1-c1ncc(NC(=O)[C@@H](NC(=O)c2nonc2C(C)C)C2c3cc(F)c(F)cc3OCC23CC3)cc1F (some centres unmarked) [Compound 46] | 95 nM | 122 nM |
| Cc1n[nH]c(C)c1-c1ccc(NC(=O)[C@@H](NC(=O)c2ccnn2C)C2c3cc(F)ccc3OCC23CC3)cc1 (some centres unmarked) [Compound 4] | 50 nM | 50 nM |
